# According to PMC10562458, “Identification of side effects of COVID-19 drug candidates on embryogenesis using an integrated zebrafish screening platform” (Scientific Reports, 2023):
# Entries after “also recorded” stand apart in the source; their conditions may differ. Like-named read-outs stand apart in the source and are kept apart here. *1 amine or outer side, *2 acyl side, *3 side chain or, on linkers, in order; H or OH if unused. Where a SMILES comes first, the peptide text is derived from it. Bridges are numbered along the chain shown (N, C = ends). [ ]: non-standard residue; d: D form. The star is where a group is joined. pTerphenylCO(4''-OnC5H11) = CCCCCOc1ccc(-c2ccc(-c3ccc(C(=O)*)cc3)cc2)cc1; Orn(4R-OH,5R-OH) = O=C([C@H](C[C@@H](O)[C@@H](O)N[*:3])N[*:1])[*:2]; hTyr(3S-OH,4S-OH) = N[C@H](C(=O)O)[C@H](O)[C@@H](O)c1ccc(O)cc1; Pro(3S-OH,4S-Me) = C[C@H]1CN[C@H](C(=O)O)[C@H]1O; Hyp = O=C(O)[C@@H]1C[C@@H](O)CN1
# What was measured:
# zebrafish embryos = details: for Mortality rate (MR) / Pericardial effusion (percentage of treated larvae): 1 µM; for Mortality rate (MR): average percentage of larvae that died before imaging; for Overall effect on embryonic development / cardiovascular system: screening concentration; for Effect on heart functionality: clinically relevant doses (Cmax); for Pericardial Effusion Rate(%): zebrafish, in vivo; for Overall effect on embryonic development: clinically relevant concentrations (Cmax)
# zebrafish larvae = assay: Behavioral assay (bright/dark locomotion test, DanioVision); details: for Effect on swimming behavior: screening concentration 1 µM (Ivermectin 0.5 µM)
# [1] = system: inflammatory and immune response gene expression; assay type: in vivo, zebrafish (Danio rerio); details: for Inflammatory response related gene expression upon SARS-CoV-2 spike protein treatment: with spike protein; for Inflammatory gene response in the absence of spike protein: without spike protein, vs DMSO
# [2] = read-out: Cmax (highest concentration detected in blood plasma), humans; cited from earlier work
# [3] = with SARS-CoV-2 spike protein, drug 48 h
compound,measurement,setting,value
C=CC[C@@H]1/C=C(\C)C[C@H](C)C[C@H](OC)[C@H]2O[C@@](O)(C(=O)C(=O)N3CCCC[C@H]3C(=O)O[C@H](/C(C)=C/[C@@H]3CC[C@@H](O)[C@H](OC)C3)[C@H](C)[C@@H](O)CC1=O)[C@H](C)C[C@@H]2OC [Tacrolimus],Effect on ejection fraction,zebrafish embryos; 1 µM screening,increase
O=C(Nc1ccc([N+](=O)[O-])cc1Cl)c1cc(Cl)ccc1O [Niclosamide],Mortality rate (MR),zebrafish embryos,over 10%
NC(=O)c1nc(F)c[nH]c1=O [Favipiravir],Effect on body length,zebrafish embryos; 1 µM screening,mild effect
CNC(=O)c1cc(Oc2ccc(NC(=O)Nc3ccc(Cl)c(C(F)(F)F)c3)c(F)c2)ccn1 [Regorafenib],Effect on ISV formation,zebrafish embryos; 1 µM screening,strong inhibition
CN(C)C(=O)COC(=O)Cc1ccc(OC(=O)c2ccc(NC(=N)N)cc2)cc1 [Camostat],Effect on swimming behavior,zebrafish larvae,effect
Ivermectin,Mortality,zebrafish embryos; 0.5 µM,mortality disappeared
same,Effect on body length,zebrafish embryos; 1 µM screening,highest reduction
same,Mortality rate (MR),zebrafish embryos,over 10%
same,Overall effect on embryonic development / cardiovascular system,zebrafish embryos,severely affected embryonic development
same,Effects on larval behavior,zebrafish larvae; 0.5 µM,still observed effects
same,Effect on swimming behavior,zebrafish larvae,most severe effects
CCS(=O)(=O)N1CC(CC#N)(n2cc(-c3ncnc4[nH]ccc34)cn2)C1 [Baricitinib],ccl20a.3 levels,[1]; [3],significantly reduced
same,Inflammatory response related gene expression upon SARS-CoV-2 spike protein treatment,[1],counteracted
same,Inflammatory gene response in the absence of spike protein,[1],alter the inflammatory gene response
same,Cmax,[2],144 nM
same,Mean Mortality(%),"zebrafish embryos; at Cmax, mean of morphological and behavioral assay",18.3%
same,Effect on heart functionality,zebrafish embryos,reduced heart functionality
same,Pericardial Effusion Rate(%),zebrafish embryos,9.30%
same,Effect on motility / swimming behavior / embryo activity,zebrafish larvae; at Cmax,effects on embryo activity; also recorded: alterations; also recorded: affected
COc1ccc(CCN2CCC(Nc3nc4ccccc4n3Cc3ccc(F)cc3)CC2)cc1 [Astemizole],Pericardial effusion (percentage of treated larvae),zebrafish embryos,94.4%
same,Effect on ISV area,zebrafish embryos; 1 µM screening,negative effects
same,Effect on body length,zebrafish embryos; 1 µM screening,highest reduction
same,Mortality rate (MR),zebrafish embryos,over 10%
Cc1ccc(C(=O)Nc2ccc(CN3CCN(C)CC3)c(C(F)(F)F)c2)cc1C#Cc1cnc2cccnn12 [Ponatinib],Pericardial effusion (percentage of treated larvae),zebrafish embryos,100%
same,Effect on body length,zebrafish embryos; 1 µM screening,highest reduction
same,Effect on swimming behavior,zebrafish larvae,effect
CCOC(=O)c1c(CSc2ccccc2)n(C)c2cc(Br)c(O)c(CN(C)C)c12 [Umifenovir],Effect on ISV area,zebrafish embryos; 1 µM screening,mildly reduced
CCN(CCO)CCCC(C)Nc1ccnc2cc(Cl)ccc12 (stereo not drawn) [Hydroxychloroquine],Effect on ISV area,zebrafish embryos; 1 µM screening,significant reductions
same,Effect on ejection fraction,zebrafish embryos; 1 µM screening,significant reductions
same,Overall effect on embryonic development / cardiovascular system,zebrafish embryos,mild defects on the cardiovascular system
17α-Hydroxyprogesterone,Effect on body length,zebrafish embryos; 1 µM screening,larval overgrowth
CC(C)C[C@H](NC(=O)[C@@H](NC(=O)c1cccc(-c2ccccc2)n1)[C@@H](C)O)B(O)O [Delanzomib],Effect on swimming behavior,zebrafish larvae,effect
CC(C)c1nc(CN(C)C(=O)N[C@H](C(=O)N[C@@H](Cc2ccccc2)C[C@H](O)[C@H](Cc2ccccc2)NC(=O)OCc2cncs2)C(C)C)cs1 [Ritonavir],Inflammatory response related gene expression upon SARS-CoV-2 spike protein treatment,[1],counteracted
same,Inflammatory gene response in the absence of spike protein,[1],alter the inflammatory gene response
same,Cmax,[2],15200 nM
same,Effect on ejection fraction,zebrafish embryos; at Cmax,altered
same,Effect on heart rate,zebrafish embryos; at Cmax,altered
same,Overall effect on embryonic development,zebrafish embryos,overall little embryonic alterations
same,Pericardial Effusion Rate(%),zebrafish embryos,8.70%
"CCCCCOc1ccc(-c2ccc(-c3ccc(C(=O)N[C@H]4C[C@@H](O)[C@@H](O)NC(=O)[C@@H]5[C@@H](O)[C@@H](C)CN5C(=O)[C@H]([C@@H](C)O)NC(=O)[C@H]([C@H](O)[C@@H](O)c5ccc(O)cc5)NC(=O)[C@@H]5C[C@@H](O)CN5C(=O)[C@H]([C@@H](C)O)NC4=O)cc3)cc2)cc1 [Anidulafungin] ({pTerphenylCO(4''-OnC5H11)}-[Orn(4R-OH,5R-OH)]T[Hyp][hTyr(3S-OH,4S-OH)]T[Pro(3S-OH,4S-Me)]; lactam 1-C)",Effect on swimming behavior,zebrafish larvae,effect
Nc1nc(Nc2ccc3c(c2)CC[C@@H](N2CCCC2)CC3)nn1-c1cc2c(nn1)-c1ccccc1CCC2 [Bemcentinib],Effect on swimming behavior,zebrafish larvae,effect
Cc1cccc(C)c1OCC(=O)N[C@@H](Cc1ccccc1)[C@@H](O)C[C@H](Cc1ccccc1)NC(=O)[C@H](C(C)C)N1CCCNC1=O [Lopinavir],Effect on ejection fraction,zebrafish embryos; 1 µM screening,reduced
O=c1[nH]c2ccccc2n1C1CCN(CCCC(c2ccc(F)cc2)c2ccc(F)cc2)CC1 [Pimozide],Pericardial effusion (percentage of treated larvae),zebrafish embryos,100%
same,Effect on ISV area,zebrafish embryos; 1 µM screening,negative effects
same,Effect on body length,zebrafish embryos; 1 µM screening,highest reduction
same,Mortality rate (MR),zebrafish embryos,over 10%
O=C(Nc1cc(Cl)cc(Cl)c1O)c1c(O)c(Cl)cc(Cl)c1Cl [Oxyclozanide],Effect on swimming behavior,zebrafish larvae,effect
COc1ccc2cc1Oc1ccc(cc1)C[C@H]1c3cc(c(OC)cc3CCN1C)Oc1c(O)c(OC)cc3c1[C@H](C2)N(C)CC3 [Hanfangchin B],Effect on swimming behavior,zebrafish larvae,effect
CC(C)C(=O)OC[C@H]1O[C@@H](n2ccc(NO)nc2=O)[C@H](O)[C@@H]1O [Molnupiravir],ccl20a.3 levels,[1]; [3],significantly reduced
same,il4 expression,[1]; [3],successfully downregulated
same,ptg expression,[1]; [3],upregulated to control levels
same,Inflammatory response related gene expression upon SARS-CoV-2 spike protein treatment,[1],counteracted
same,Inflammatory gene response in the absence of spike protein,[1],alter the inflammatory gene response
same,Cmax,[2],40 nM
same,Overall effect on embryonic development,zebrafish embryos,severe adverse effects
same,Pericardial Effusion Rate(%),zebrafish embryos,0.00%
CNC(=O)c1cc(Oc2ccc(NC(=O)Nc3ccc(Cl)c(C(F)(F)F)c3)cc2)ccn1 [Sorafenib],Effect on ISV formation,zebrafish embryos; 1 µM screening,strong inhibition
Cc1cccc(/C=N/Nc2cc(N3CCOCC3)nc(OCCc3ccccn3)n2)c1 [Apilimod],Mortality rate (MR),zebrafish embryos,over 10%
same,Effect on swimming behavior,zebrafish larvae,effect
COc1cc2nccc(Oc3ccc(NC(=O)C4(C(=O)Nc5ccc(F)cc5)CC4)cc3)c2cc1OC [Cabozantinib],Effect on ISV formation,zebrafish embryos; 1 µM screening,strong inhibition
same,Effect on swimming behavior,zebrafish larvae,effect
S=C(NCc1ccc2c(c1)OCO2)N1CCN(c2ncnc3c2oc2ccccc23)CC1 [Amuvatinib],Effect on swimming behavior,zebrafish larvae,effect
CCC(CC)COC(=O)[C@H](C)N[P@](=O)(OC[C@H]1O[C@@](C#N)(c2ccc3c(N)ncnn23)[C@H](O)[C@@H]1O)Oc1ccccc1 [Remdesivir],ptg expression,[1]; [3],upregulated to control levels
same,Inflammatory response related gene expression upon SARS-CoV-2 spike protein treatment,[1],counteracted
same,Inflammatory gene response in the absence of spike protein,[1],broadest effect; also recorded: alter the inflammatory gene response
same,Cmax,[2],4500 nM
same,Effect on ejection fraction,zebrafish embryos; at Cmax,decrease
same,Effect on heart rate,zebrafish embryos; at Cmax,decrease
same,Overall effect on embryonic development,zebrafish embryos,severe adverse effects
same,Effect on heart functionality,zebrafish embryos,reduced
same,Pericardial Effusion Rate(%),zebrafish embryos,7.69%
CO[C@@H]1[C@H](N(C)C(=O)c2ccccc2)C[C@H]2O[C@]1(C)n1c3ccccc3c3c4c(c5c6ccccc6n2c5c31)C(=O)NC4 [Midostaurin],Mortality rate (MR),zebrafish embryos,over 10%
COC(=O)C1=C(C)NC(C)=C(C(=O)OCCN2CCN(C(c3ccccc3)c3ccccc3)CC2)C1c1cccc([N+](=O)[O-])c1 (stereo not drawn) [Manidipine],Mortality rate (MR),zebrafish embryos,over 10%
NC(=O)c1ncn([C@@H]2O[C@H](CO)[C@@H](O)[C@H]2O)n1 [Ribavirin],Effect on ISV area,zebrafish embryos; 1 µM screening,mildly reduced
C[C@@H](c1nc(-c2ccc(C#N)cc2)cs1)[C@](O)(Cn1cncn1)c1ccc(F)cc1F [Ravuconazole],Effect on swimming behavior,zebrafish larvae,effect
